What was measured:
[1] = Mouse PK assay; format: in vivo, B6 female mice; details: po
Description: The pharmacokinetics (e.g., absorption and elimination) of drugs in mice were analyzed using the following experiment. Test compounds were formulated as a suspension in a 30:70 (PEG 400: acidified H2O) vehicle. This solution was administered orally (p.o.) and intraperitoneally (i.p.) at 50 mg/kg to two distinct groups (n=4) of B6 female mice. Blood samples were collected via an orbital bleed at time points: 0 hour (pre-dose), 0.5 hr, 1.0 hr, 2.0 hr, and 4.0 hr post dose. Plasma was obtained from each sample by centrifugation at 2500 rpm for 5 min. Test compound was extracted from the plasma by an organic protein precipitation method. For each time bleed, 50 μL of plasma was combined with 1.0 mL of acetonitrile, vortexed for 2 min. and then spun at 4000 rpm for 15 min. to precipitate the protein and extract out the test compound. Next, the acetonitrile supernatant (the extract containing test compound) was poured into new test tubes and evaporated on a hot plate (25° C.) under a steam of N2 gas. To each tube containing the dried test compound extract, 125 μL of mobile phase (60:40, 0.025 M NH4H2PO4+2.5 mL/L TEA:acetonitrile) was added. The test compound was resuspended in the mobile phase by vortexing and more protein was removed by centrifugation at 4000 rpm for 5 min. Each sample was poured into an HPLC vial for test compound analysis on an Hewlett Packard 1100 series HPLC with UV detection. From each sample, 95 μL was injected onto a Phenomenex-Prodigy reverse phase C-18, 150×3.2 mm column and eluted with a 45-50% acetonitrile gradient run over 10 min. Test-compound plasma concentrations (μg/mL) were determined by a comparison to standard curve (peak area vs. conc. μg/mL) using known concentrations of test compound extracted from plasma samples in the manner described above. Along with the standards and unknowns, three groups (n=4) of quality controls (0.25 μg/mL, 1.5 μg/mL, and 7.5 μg/mL) were run to insure the consistency of the analysis. […] The quantitated test samples were plotted for visual display using Kaleidagraph software and their pharmacokinetic parameters were determined using WIN NONLIN software.

[2] = biological target: T1, unphosphorylated VEGF-R2Δ50 (FLVK) (Homo sapiens, UniProt P35968, DEL940-989/E990V); test: VEGF-R2 coupled spectrophotometric assay, unphosphorylated construct (FLVK); format: biochemical; details: for inhibition at 0.05 µM: percent inhibition at 50 nM
T1 construct: VEGF-R2Δ50 contains residues 806-939 and 990-1171; made in house; host or cells: baculovirus/insect cell system
T1 sequence (P35968 with tags, fused parts or gaps DEL940-989/E990V limits assumed): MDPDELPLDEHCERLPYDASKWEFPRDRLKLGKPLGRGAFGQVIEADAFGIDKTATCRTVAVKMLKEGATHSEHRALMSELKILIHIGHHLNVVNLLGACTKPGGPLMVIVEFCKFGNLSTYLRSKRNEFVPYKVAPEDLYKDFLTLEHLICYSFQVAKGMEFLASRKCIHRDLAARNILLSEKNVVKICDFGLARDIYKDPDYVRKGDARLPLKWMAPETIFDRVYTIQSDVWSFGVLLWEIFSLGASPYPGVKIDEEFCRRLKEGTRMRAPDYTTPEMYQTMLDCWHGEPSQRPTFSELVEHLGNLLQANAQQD
Excerpt: This construct determines the ability of a test compound to inhibit tyrosine kinase activity. A construct (VEGF-R2Δ50) of the cytosolic domain of human vascular endothelial growth factor receptor 2 (VEGF-R2) lacking the 50 central residues of the 68 residues of the kinase insert domain was expressed in a baculovirus/insect cell system. Of the 1356 residues of full-length VEGF-R2, VEGF-R2Δ50 contains residues 806-939 and 990-1171, and also one point mutation (E990V) within the kinase insert domain relative to wild-type VEGF-R2. Autophosphorylation of the purified construct was performed by incubation of the enzyme at a concentration of 4 μM in the presence of 3 mM ATP and 40 mM MgCl2 in 100 mM HEPES, pH 7.5, containing 5% glycerol and 5 mM DTT, at 4° C. for 2 h. […] See Parast et al., Biochemistry, 37, 16788-16801 (1998).
The production of ADP from ATP that accompanies phosphoryl transfer was coupled to oxidation of NADH using phosphoenolpyruvate (PEP) and a system having pyruvate kinase (PK) and lactic dehydrogenase (LDH). The oxidation of NADH was monitored by following the decrease of absorbance at 340 nm ([…]=6.22 cm^−1 mM^−1) using a Beckman DU 650 spectrophotometer. Assay conditions for phosphorylated VEGF-R2Δ50 (indicated as FLVK-P in the tables below) were the following: 1 mM PEP; 250 μM NADH; 50 units of LDH/mL; 20 units of PK/mL; 5 mM DTT; […]; 1 mM ATP; and 25 mM MgCl2 in 200 mM HEPES, pH 7.5. Assay conditions for unphosphorylated VEGF-R2Δ50 (indicated as FLVK in the tables) were the following: 1 mM PEP; 250 μM NADH; 50 units of LDH/mL; 20 units of PK/mL; 5 mM DTT; […]; 3 mM ATP; and 60 mM MgCl2 and 2 mM MnCl2 in 200 mM HEPES, pH 7.5. Assays were initiated with 5 to 40 nM of enzyme. Ki values were determined by measuring enzyme activity in the presence of varying concentrations of test compounds. The percent inhibition at 50 nm (% inhibition@ 50 nm) was determined by linear least-squares regression analysis of absorbance as a function of time. The binding inhibitions were fitted to equation as described by Morrison. The data were analyzed using Enzyme Kinetic and Kaleidagraph software.

Row | SMILES | AUC ([1]; female, B6, mouse, plasma, 50 mg/kg) | Cmax ([1]; female, B6, mouse, plasma, 50 mg/kg, p.o., 50 mg/kg, read-out: Mouse Cmax, po ng-h/mL) | Mouse Cmin, po [1] | Ki [2] | inhibition at 0.05 µM [2]
1 | COC[C@H]1CCCN1C(=O)c1cc2nccc(Oc3ccc4[nH]c(C)c(C(=O)NC5CC5)c4c3)c2s1 [Example 4y, 5-[2-(2R-Methoxymethyl-pyrrolidine-1-carbonyl)-thieno[3,2-b]pyridin-7-yloxy]-2-methyl-1H-indole-3-carboxylic acid cyclopropylamide] | 383 ng·h/mL | 265 ng/mL | 11 ng/mL | 24000 pM | 10%
2 | CO[C@H]1CN(C(=O)c2cc3nccc(Oc4ccc5c(c4)cc(C)n5C(=O)NC4CC4)c3s2)C[C@H]1OC [Example 4t, 5-[2-(3,4-cis-Dimethoxy-pyrrolidine-1-carbonyl)-thieno[3,2-b]pyridin-7-yloxy]-2-methyl-indole-1-carboxylic acid cyclopropylamide] |  |  |  | 594 pM | 98%
3 | CNC(=O)c1c(C)[nH]c2ccc(Oc3ccnc4cc(C(=O)N5CCC[C@@H]5COC)sc34)cc12 [Example 4x, 5-[2-(2R-Methoxymethyl-pyrrolidine-1-carbonyl)-thieno[3,2-b]pyridin-7-yloxy]-2-methyl-1H-indole-3-carboxylic acid methylamide] |  |  |  | 100000 pM | 1%
4 | CNC(=O)n1c(C)cc2cc(Oc3ccnc4cc(C(=O)N5C[C@H](OC)[C@H](OC)C5)sc34)ccc21 [Example 4r, 5-[2-(3,4-cis-Dimethoxy-pyrrolidine-1-carbonyl)-thieno[3,2-b]pyridin-7-yloxy]-2-methyl-indole-1-carboxylic acid methylamide] |  |  |  | 701 pM | 96%

Other lines, results leading:

Row | AUC ([1]; female, B6, mouse, plasma, 50 mg/kg) | Cmax ([1]; female, B6, mouse, plasma, 50 mg/kg, p.o., 50 mg/kg, read-out: Mouse Cmax, po ng-h/mL) | Mouse Cmin, po [1] | Ki [2] | inhibition at 0.05 µM [2] | SMILES
5 |  |  |  | 123 pM | 98% | CNC(=O)n1c(C)cc2cc(Oc3ccnc4cc(C(=O)N5C[C@H](OC)[C@@H](O)C5)sc34)ccc21 [Example 8c]
6 |  |  |  | 586 pM | 98% | CNC(=O)n1c(C)cc2c(F)c(Oc3ccnc4cc(C(=O)N5CC[C@@H](O)C5)sc34)ccc21 [Example 5m, 4-Fluoro-5-[2-(3R-hydroxy-pyrrolidine-1-carbonyl)-thieno[3,2-b]pyridin-7-yloxy]-2-methyl-indole-1-carboxylic acid methylamide]
7 |  |  | 16470 ng/mL | 148 pM | 99% | C#CCNC(=O)n1c(C)cc2c(F)c(Oc3ccnc4cc(C(=O)N5CCC(O)C5)sc34)ccc21 (stereo in doubt) [Example 5k, 4-Fluoro-5-[2-(3R-hydroxy-pyrrolidine-1-carbonyl)-thieno[3,2-b]pyridin-7-yloxy]-2-methyl-indole-1-carboxylic acid prop-2-ynylamide]
8 |  |  |  | 115 pM | 98% | CCCNC(=O)n1c(C)cc2cc(Oc3ccnc4cc(C(=O)N5C[C@H](OC)[C@@H](OC)C5)sc34)ccc21 [Example 8e, 5-[(2-{[(3S,4S)-3,4-dimethoxypyrrolidin-1-yl]carbonyl}thieno[3,2-b]pyridin-7-yl)oxy]-2-methyl-N-propyl-1H-indole-1-carboxamide]

From US6833456B2, “Indolyl-urea derivatives of thienopyridines useful as antiangiogenic agents, and methods for their use” (Agouron Pharmaceuticals, Inc., priority 2002, dated 2004)
